Assays:
[1] = Pharmacokinetic evaluation in ICR mice; type: in vivo; settings: male, mouse, plasma, PO 10 mg/kg; for AUC(0-t): read-out: Area under curve AUC0-t; for half-life: read-out: Half-life T1/2 (converted); for Cmax: read-out: Plasma concentration Cmax
Description: (§1) ICR normal mice were used as test animals, and LC/MS/MS was used to determine the drug concentrations at different moments in plasma of ICR mice by intragastric administration. The pharmacokinetic behavior of the compounds of the present invention in ICR mice was studied to evaluate the pharmacokinetic characteristics of the above compounds.
Compound 4, Compound 26 and Compound 32.
ICR mice, male, 27.8-38 g, were purchased from Zhejiang Vital River Laboratory Animal Technology Co., Ltd.
An appropriate amount of the compound was weighed, and DMA:30% Solutol HS-15:Saline=5:5:90 (v/v/v) was used as the solvent to prepare a fully dissolved solution, and then administered to obtain a 1 mg/mL colorless solution.
The ICR mice in the intragastric group of each compound to be tested (nine mice in each group) were fasted overnight followed by intragastric administration (administration dosage was 10 mg/kg and the administration volume was 10 mL/kg), and ate 4 hours after administration.
0.1 mL of blood was collected via orbit before administration and 0.25 hour, 0.5 hour, 1 hour, 2 hours, 4 hours, 8 hours, 12 hours, and 24 hours after administration, and placed in EDTA-K2 anticoagulant tubes. The collected blood samples were placed on ice, and plasma was separated by centrifugation (centrifugation condition: 1500 g, 10 minutes). The collected plasma samples were stored at −40˜−20° C. before analysis.
(§2) LC-MS/MS was used to determine the content of the compound to be tested in mouse plasma after intragastric administration.

OCI-AML5 cells = test: Inhibition of OCI-AML5 cell proliferation (CellTiter-Glo); type: cell-based; settings: Homo sapiens, OCI-AML-5; OCI-AML5 cells (SOS1 N233Y mutation), 120 hours
Procedure: The following method was used to determine the influence of the compounds of the present invention on OCI-AML5 cells proliferation. OCI-AML5 cells (containing SOS1 N233Y mutation) were purchased from Nanjing Kebai Biotechnology Co., Ltd. and cultured in MEMα medium containing 10% fetal bovine serum, 100 U penicillin, and 100 μg/mL streptomycin. The activities of the cells were determined by CellTiter-Glo® Luminescent Cell Viability Assay Kit (Promega, Art. No. G7573).
The experimental method was operated according to the steps in the kit instruction, which were briefly described as follows: the test compounds were first dissolved in DMSO to prepare storage solutions of 10 mM, and then diluted with culture mediums to prepare test samples. The final concentrations of the compounds were 10000 nM to 0.15 nM. Cells in logarithmic phase were inoculated in a 96-well cell culture plate with 1,000 cells per well, after cultured overnight in 5% CO2 incubator at 37° C., the test compounds were added to the incubator to continue the culture for 120 hours. After the culture was completed, 50 μL of CellTiter-Glo detection solution was added to each well, shaken for 5 minutes and then stood for 10 minutes. Then, a Luminescence mode was used to read the luminescence values of each well of the samples on a microplate reader.

[2] = Pharmacokinetic evaluation in Balb/c mice; type: in vivo; settings: male, mouse, plasma, PO 10 mg/kg; for AUC(0-t): read-out: Area under curve AUC0-t; for half-life: read-out: Half-life T1/2 (converted); for Cmax: read-out: Plasma concentration Cmax
Description: as §1, with “Balb/c normal” for “ICR normal”, “of balb/c” for “of ICR”, “in Balb/c” for “in ICR”
Compound 27 and Compound 30.
Nine Balb/c normal mice, male, were evenly divided into 3 groups, with 3 mice in each group, purchased from Zhejiang Vital River Laboratory Animal Technology Co., Ltd.
An appropriate amount of the compound was weighed, and DMA:30% Solutol HS-15:Saline=5:5:90 (v/v/v) was used as the solvent to prepare a fully dissolved solution with a concentration of 1 mg/mL.
The mice in the intragastric group of each compound to be tested (nine mice in each group) were fasted overnight followed by intragastric administration (administration dosage was 10 mg/kg and the administration volume was 10 mL/kg), and ate 4 hours after administration.
0.1 mL of blood was collected via jugular vein before administration and 0.25 hour, 0.5 hour, 1 hour, 2 hours, 4 hours, 6 hours, 8 hours, and 24 hours after administration, and placed in 0.1% sodium heparin anticoagulant test tubes. The collected blood samples were placed on ice, and plasma was separated by centrifugation (centrifugation condition: 7000 g, 5 minutes). The collected plasma samples were stored at −80° C. before analysis.
as §2

p-ERK1/2 in DLD-1 cells = test: Inhibition of p-ERK1/2 in DLD-1 cells (Cisbio Advanced phospho-ERK1/2 kit); type: cell-based; settings: Homo sapiens; DLD-1 cells (KRAS G13D mutation), hEGF 5 nM stimulation; read-out: IC50 (nM) Inhibition on p-ERK½ in DLD-1 cells
Description: The following method was used to determine the inhibition activities of the compounds of the present invention on p-ERK1/2 in DLD-1 cells. The Advanced phospho-ERK1/2 (Thr202/tyr2O4) kit (Art. No. 64AERPEH) from Cisbio was used in this method. Please refer to the kit instruction for detailed experimental operations. DLD-1 cells (containing KRAS G13D mutation) were purchased from the Cell Resource Center of Shanghai Institutes for Biological Sciences, Chinese Academy of Sciences.
The experimental process can be briefly described as follows: DLD-1 cells were cultured in RPMI 1640 complete medium containing 10% fetal bovine serum, 100 U penicillin, 100 μg/mL streptomycin and 1 mM Sodium Pyruvate. DLD-1 cells were plated in a 96-well plate at 30,000 cells per well, after cultured overnight in 5% CO2 incubator at 37° C. with complete culture medium. The test compounds were dissolved in DMSO to prepare storage solutions of 10 mM, and then diluted with RPMI 1640 basic mediums. 90 μL of RPMI 1640 basic mediums containing the test compounds at the corresponding concentration were added to each well. The final concentrations of the test compounds in the reaction system were 10,000 nM to 0.15 nM, and were placed in a cell culture incubator for 3 hours and 40 minutes. Subsequently, 10 μL of hEGF (purchased from Roche, Art. No. 11376454001) prepared with RPMI 1640 basic medium was added to a final concentration of 5 nM, and placed in the incubator for culturing for 20 minutes. The cell supernatant was discarded, and the cells were washed with PBS on ice-bath. Then, 45 μl of 1× cell phospho/total protein lysis buffer (component of Advanced phospho-ERK1/2 kit) was added to each well for lysis. The 96-well plate was placed on ice for 0.5 hours to lyse, and then the lysate was detected according to the instruction of the Advanced phospho-ERK1/2 (Thr202/tyr2O4) kit. Finally, the microplate reader was used in […] mode to measure the fluorescence intensity of each well emitting wavelengths of 620 nm and […] under the excitation wavelength of 304 nm, and the fluorescence intensity ratio 665/620 in each well was calculated. By comparing with the fluorescence intensity ratio of a control group (0.1% DMSO), the percentage inhibition rates of the test compounds at each concentration were calculated, and the IC50 values of the compounds were obtained by performing nonlinear regression analysis with logarithmic values of the compound concentration-inhibition rate by GraphPad Prism 5 software, which can be seen in Table 3.

Row | Structure (SMILES) | AUC(0-t) [1] | half-life [1] | Cmax [1] | IC50 (OCI-AML5 cells) | AUC(0-t) [2] | half-life [2] | Cmax [2] | IC50 (p-ERK1/2 in DLD-1 cells)
1 | CC(=O)c1cc2nc(C)nc(N[C@H](C)c3cccc(C#N)c3C)c2cc1N1CCC2(CC1)COC2 [Compound 26, (R)-3-(1-((7-acetyl-2-methyl-6-(2-oxa-7-azaspiro[3.5]nonan-7-yl)quinazolin-4-yl)amino)ethyl)-2-methylbenzonitrile] | 7700 ng·h/mL | 1.98 h | 2830 ng/mL | 17.4 nM | – | – | – | –
2 | COc1cc2nc(C)nc(N[C@H](C)c3cccc(C#N)c3C)c2cc1N1CCC(N2CCN(C(C)=O)CC2)CC1 [Compound 27, (R)-3-(1-((6-(4-(4-acetylpiperazin-1-yl)piperidin-1-yl)-7-methoxy-2-methylquinazolin-4-yl)amino)ethyl)-2-methylbenzonitrile] | – | – | – | – | 4660 ng·h/mL | 4.91 h | 1150 ng/mL | 31.2 nM
3 | CCOC(=O)N1CCN(c2cc3c(N[C@H](C)c4cccc(C#N)c4C)nc(C)nc3cc2OC)CC1 [Compound 30, ethyl (R)-4-(4-((1-(3-cyano-2-methylphenyl)ethyl)amino)-7-methoxy-2-methylquinazolin-6-yl)piperazine-1-carboxylate] | – | – | – | – | 10800 ng·h/mL | 0.79 h | 4660 ng/mL | –
4 | COc1cc2nc(C)nc(N[C@H](C)c3cccc(C#N)c3C)c2cc1C1(OC)CCN(C(C)=O)CC1 [Compound 32, (R)-3-(1-((6-(1-acetyl-4-methoxypiperidin-4-yl)-7-methoxy-2-methylquinazolin-4-yl)amino)ethyl)-2-methylbenzonitrile] | 22100 ng·h/mL | 2.29 h | 5610 ng/mL | – | – | – | – | –

From patent US20240382475A1, “Quinazoline Derivative, Or Preparation Method Therefor And Use Thereof” (Zhejiang Hisun Pharmaceutical Co., Ltd., priority 2021, published 2024)
